According to PubChem BioAssay (NCI):
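Compound exposure: 48 hours, 5 concentrations, 96-well plates. At the GI50, growth is halved. TGI denotes the concentration required for complete inhibition of growth.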

Columns and labels:
Test in all cases: growth of human tumour cells (NCI), 48 h
NCI-H522 lung = test system: NCI-H522 lung
BT-549 breast = test system: BT-549 breast
CAKI-1 renal = test system: CAKI-1 renal
HCT-15 colon = test system: HCT-15 colon
OVCAR-8 ovarian = test system: OVCAR-8 ovarian
RXF 393 renal = test system: RXF 393 renal
SF-539 CNS = test system: SF-539 CNS
HOP-92 NSCLC = test system: HOP-92 NSCLC
DU-145 prostate = test system: DU-145 prostate
NCI-H460 lung = test system: NCI-H460 lung
EKVX NSCLC = test system: EKVX NSCLC
CCRF-CEM leukemia = test system: CCRF-CEM leukemia
NCI-H23 lung = test system: NCI-H23 lung
OVCAR-3 ovarian = test system: OVCAR-3 ovarian
SK-MEL-28 melanoma = test system: SK-MEL-28 melanoma
RPMI-8226 leukemia = test system: RPMI-8226 leukemia
KM12 colon = test system: KM12 colon
COLO 205 colon = test system: COLO 205 colon
PC-3 prostate = test system: PC-3 prostate
HCT-116 colon = test system: HCT-116 colon
SR leukemia = test system: SR leukemia
SF-295 CNS = test system: SF-295 CNS
SK-OV-3 ovarian = test system: SK-OV-3 ovarian
IGROV1 ovarian = test system: IGROV1 ovarian
LOX IMVI melanoma = test system: LOX IMVI melanoma
MDA-MB-231 breast = test system: MDA-MB-231 breast
NCI-H226 lung = test system: NCI-H226 lung
NCI/ADR-RES ovarian = test system: NCI/ADR-RES ovarian
M14 melanoma = test system: M14 melanoma
A549 NSCLC = test system: A549 NSCLC
U251 CNS = test system: U251 CNS
UACC-257 melanoma = test system: UACC-257 melanoma
SF-268 CNS = test system: SF-268 CNS
HCC-2998 colon = test system: HCC-2998 colon
MDA-MB-435 = test system: MDA-MB-435
OVCAR-5 ovarian = test system: OVCAR-5 ovarian
HT29 colon = test system: HT29 colon
SK-MEL-5 melanoma = test system: SK-MEL-5 melanoma
OVCAR-4 ovarian = test system: OVCAR-4 ovarian
TK-10 renal = test system: TK-10 renal
T-47D breast = test system: T-47D breast
HL-60(TB) leukemia = test system: HL-60(TB) leukemia
SNB-75 CNS = test system: SNB-75 CNS
MCF7 breast = test system: MCF7 breast
MOLT-4 leukemia = test system: MOLT-4 leukemia
SK-MEL-2 melanoma = test system: SK-MEL-2 melanoma
SNB-19 CNS = test system: SNB-19 CNS
HS 578T breast = test system: HS 578T breast
MALME-3M melanoma = test system: MALME-3M melanoma
UO-31 renal = test system: UO-31 renal
786-0 renal = test system: 786-0 renal
SW-620 colon = test system: SW-620 colon
SN12C renal = test system: SN12C renal
K-562 leukemia = test system: K-562 leukemia
ACHN renal = test system: ACHN renal
UACC-62 melanoma = test system: UACC-62 melanoma
HOP-62 NSCLC = test system: HOP-62 NSCLC

In the case of `Cn1cc(-c2csc(-c3cccc(F)c3)n2)c2cccnc21`, the GI50 (NCI-H522 lung) is reported as 15.9 µM, the TGI (NCI-H522 lung) is reported as 36 µM and the GI50 (BT-549 breast) is reported as 20.9 µM. For the same molecule, the TGI (BT-549 breast) was 56.1 µM, the GI50 (CAKI-1 renal) was 16.2 µM and the TGI (CAKI-1 renal) was 40.5 µM. It also gave a GI50 (HCT-15 colon) of 14 µM, a TGI (HCT-15 colon) of 35.7 µM and a GI50 (OVCAR-8 ovarian) of 26.5 µM. The TGI (OVCAR-8 ovarian) was 64.3 µM, the GI50 (RXF 393 renal) was 16 µM and the TGI (RXF 393 renal) was 34.4 µM. It also gave a GI50 (SF-539 CNS) of 15.5 µM, a TGI (SF-539 CNS) of 30.1 µM and a GI50 (HOP-92 NSCLC) of 1.04 µM. The TGI (HOP-92 NSCLC) was 18.6 µM, the GI50 (DU-145 prostate) was 18.2 µM and the TGI (DU-145 prostate) was 32.1 µM. It also gave a GI50 (NCI-H460 lung) of 17 µM, a TGI (NCI-H460 lung) of 34.7 µM and a GI50 (EKVX NSCLC) of 12.5 µM. The TGI (EKVX NSCLC) was 37.6 µM, the GI50 (CCRF-CEM leukemia) was 35.9 µM and the TGI (CCRF-CEM leukemia) was > 100 µM. The GI50 (NCI-H23 lung) was 17.3 µM, the TGI (NCI-H23 lung) was 36 µM and the GI50 (OVCAR-3 ovarian) was 19 µM. The TGI (OVCAR-3 ovarian) was 33.9 µM, the GI50 (SK-MEL-28 melanoma) was 17.6 µM and the TGI (SK-MEL-28 melanoma) was 32.8 µM. For the same molecule, the GI50 (RPMI-8226 leukemia) was 25.2 µM, the TGI (RPMI-8226 leukemia) was > 100 µM and the GI50 (KM12 colon) was 16 µM. For the same molecule, the TGI (KM12 colon) was 29.5 µM, the GI50 (COLO 205 colon) was 15.7 µM and the TGI (COLO 205 colon) was 30.1 µM. The GI50 (PC-3 prostate) was 16.2 µM, the TGI (PC-3 prostate) was 39.5 µM and the GI50 (HCT-116 colon) was 14.2 µM. The TGI (HCT-116 colon) was 27.3 µM, the GI50 (SR leukemia) was 13.5 µM and the TGI (SR leukemia) was > 100 µM. It also gave a GI50 (SF-295 CNS) of 14.9 µM, a TGI (SF-295 CNS) of 33.7 µM and a GI50 (SK-OV-3 ovarian) of 24.9 µM. It also gave a TGI (SK-OV-3 ovarian) of 62.2 µM, a GI50 (IGROV1 ovarian) of 21.2 µM and a TGI (IGROV1 ovarian) of 47.5 µM. The GI50 (LOX IMVI melanoma) was 14.1 µM, the TGI (LOX IMVI melanoma) was 27.5 µM and the GI50 (MDA-MB-231 breast) was 16.8 µM. The TGI (MDA-MB-231 breast) was 35.3 µM, the GI50 (NCI-H226 lung) was 19.4 µM and the TGI (NCI-H226 lung) was 51.1 µM. For the same molecule, the GI50 (NCI/ADR-RES ovarian) was 20.3 µM, the TGI (NCI/ADR-RES ovarian) was 50.2 µM and the GI50 (M14 melanoma) was 15.3 µM. The TGI (M14 melanoma) was 29.5 µM, the GI50 (A549 NSCLC) was 20.9 µM and the TGI (A549 NSCLC) was 47.4 µM. For the same molecule, the GI50 (U251 CNS) was 15.5 µM, the TGI (U251 CNS) was 31.8 µM and the GI50 (UACC-257 melanoma) was 21.8 µM. For the same molecule, the TGI (UACC-257 melanoma) was 42.6 µM, the GI50 (SF-268 CNS) was 17.3 µM and the TGI (SF-268 CNS) was 32.1 µM. For the same molecule, the GI50 (HCC-2998 colon) was 18.9 µM, the TGI (HCC-2998 colon) was 33.6 µM and the GI50 (MDA-MB-435) was 14.4 µM. The TGI (MDA-MB-435) was 33.1 µM, the GI50 (OVCAR-5 ovarian) was 14.8 µM and the TGI (OVCAR-5 ovarian) was 31.5 µM. The GI50 (HT29 colon) was 14.2 µM, the TGI (HT29 colon) was 27.9 µM and the GI50 (SK-MEL-5 melanoma) was 15.7 µM. The TGI (SK-MEL-5 melanoma) was 30.4 µM, the GI50 (OVCAR-4 ovarian) was 27.6 µM and the TGI (OVCAR-4 ovarian) was 78.6 µM. It also gave a GI50 (TK-10 renal) of 17.9 µM, a TGI (TK-10 renal) of 38.1 µM and a GI50 (T-47D breast) of 14.4 µM. The TGI (T-47D breast) was 51.7 µM, the GI50 (HL-60(TB) leukemia) was 14.4 µM and the TGI (HL-60(TB) leukemia) was 49.9 µM. The GI50 (SNB-75 CNS) was 35.7 µM, the TGI (SNB-75 CNS) was > 100 µM and the GI50 (MCF7 breast) was 17.9 µM. It also gave a TGI (MCF7 breast) of 43.4 µM, a GI50 (MOLT-4 leukemia) of 11.7 µM and a TGI (MOLT-4 leukemia) of 34.6 µM. It also gave a GI50 (SK-MEL-2 melanoma) of 23.5 µM, a TGI (SK-MEL-2 melanoma) of 55.2 µM and a GI50 (SNB-19 CNS) of 20.1 µM. For the same molecule, the TGI (SNB-19 CNS) was 54.4 µM, the GI50 (HS 578T breast) was 19.3 µM and the TGI (HS 578T breast) was 45.5 µM. The GI50 (MALME-3M melanoma) was 17.6 µM, the TGI (MALME-3M melanoma) was 45.5 µM and the GI50 (UO-31 renal) was 15.9 µM. For the same molecule, the TGI (UO-31 renal) was 50.6 µM, the GI50 (786-0 renal) was 16.1 µM and the TGI (786-0 renal) was 30.4 µM. For the same molecule, the GI50 (SW-620 colon) was 16.7 µM, the TGI (SW-620 colon) was 30.5 µM and the GI50 (SN12C renal) was 15.6 µM. It also gave a TGI (SN12C renal) of 29.5 µM, a GI50 (K-562 leukemia) of 23.3 µM and a TGI (K-562 leukemia) of 87.1 µM. It also gave a GI50 (ACHN renal) of 18.2 µM, a TGI (ACHN renal) of 50.7 µM and a GI50 (UACC-62 melanoma) of 13.8 µM. The TGI (UACC-62 melanoma) was 27.8 µM, the GI50 (HOP-62 NSCLC) was 18.9 µM and the TGI (HOP-62 NSCLC) was 34.5 µM.
